Test systems include COLO 205; HOP-92; SF-268; UACC-257; CCRF-CEM; NCI-H460; NCI-H226; OVCAR-4; SK-MEL-28; OVCAR-5; SR; PC-3; LOX IMVI; MDA-MB-231; T47D; OVCAR-3; HCT-15; A498; Malme-3M; DU-145.
Assay in all cases: growth of human tumour cells (NCI), 48 h

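Cells were grown in 96-well plates and exposed to each compound for 48 hours at five concentrations; endpoints were interpolated linearly between bracketing concentrations, or set to the highest concentration if not reached. GI50 = concentration required for 50% inhibition of growth.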 Activity calls are given as the source filed them. Rule as the data show it: active = GI50 up to about 1.1 µM and inactive = higher. Some results are limits rather than exact numbers.

For `CC(C)CC(NC(=O)C(Cc1ccccc1)NC(=O)[C@H]1CC[C@H](NC(=O)C(Cc2ccc(OC(C)(C)C)cc2)NC(=O)OC(C)(C)C)C1)C(N)=O` (some centres undefined), the GI50 in the experiment on COLO 205 is 18.8 µM (inactive); in the experiment on HOP-92, 23.8 µM (inactive); in the experiment on SF-268, 24.6 µM (inactive); in the experiment with UACC-257 it was 19.7 µM (inactive); with CCRF-CEM it was 14.6 µM (inactive); in the experiment on NCI-H460, 17.3 µM (inactive). The GI50 in the experiment on NCI-H226 was 18.6 µM (inactive); in the experiment on OVCAR-4, 29 µM (inactive); with SK-MEL-28, 20.2 µM (inactive); in the experiment with OVCAR-5, 31 µM (inactive); with SR, 29.9 µM (inactive); in the experiment on PC-3, 18.1 µM (inactive). Besides, the GI50 with LOX IMVI was 17.1 µM (inactive); in the experiment on MDA-MB-231, 31.9 µM (inactive); with T47D, 18.5 µM (inactive); with OVCAR-3, 25.9 µM (inactive); with HCT-15, 18 µM; in the experiment on A498 it was 39.7 µM (inactive). The GI50 with Malme-3M is 26.4 µM (inactive).

As to `CC(C)C(C/C=C1/CC(CO)(COC(=O)c2ccccc2)OC1=O)C(C)C` (centres undefined), the GI50 is 3.63 µM (inactive) in the experiment with COLO 205; 17.5 µM (inactive) in the experiment with HOP-92; 16.8 µM (inactive) in the experiment with SF-268; 24.8 µM (inactive) in the experiment with UACC-257; 16.8 µM (inactive) in the experiment on CCRF-CEM; 17 µM (inactive) with NCI-H460. In addition, the GI50 with NCI-H226 is 16 µM (inactive); with OVCAR-4, 15 µM (inactive); in the experiment with SK-MEL-28, 14.1 µM (inactive); in the experiment with OVCAR-5, 16.9 µM (inactive); in the experiment with SR, 30.6 µM (inactive); with PC-3, 13.6 µM (inactive). Further, the GI50 in the experiment with LOX IMVI is 23.8 µM (inactive); in the experiment with MDA-MB-231, 15.7 µM (inactive); in the experiment with T47D, 15.6 µM (inactive); with OVCAR-3, 17.5 µM (inactive); in the experiment with HCT-15 it was 20 µM; in the experiment on A498, 18.2 µM (inactive). Moreover, in the experiment on Malme-3M, the GI50 was 12 µM (inactive).

Take `N/N=C(\C(=O)Nc1ccc(Cl)cc1Cl)C(c1cnc2ccccc2n1)[N+](=O)[O-]` (centres undefined): the GI50 in the experiment with HOP-92, with SF-268, in the experiment with UACC-257, in the experiment with CCRF-CEM, with NCI-H460 and in the experiment with NCI-H226 was > 100 µM (inactive) each time. The GI50 in the experiment with OVCAR-4 was > 100 µM (inactive); in the experiment on SK-MEL-28, > 100 µM (inactive); in the experiment with OVCAR-5 it was > 100 µM (inactive); with SR it was > 10 µM (inactive); with PC-3, > 100 µM (inactive); with LOX IMVI, > 100 µM (inactive). Further, the GI50 in the experiment with MDA-MB-231 was > 100 µM (inactive); in the experiment with T47D, > 100 µM (inactive); in the experiment on OVCAR-3 it was > 100 µM (inactive); in the experiment with HCT-15, > 100 µM; in the experiment on A498, > 100 µM (inactive); in the experiment with Malme-3M, > 100 µM (inactive).

With `CC(=O)/C(=C/NC(=S)N/N=C1\C(=O)Nc2ccccc21)C(=O)Nc1ccccc1C`, the GI50 in the experiment on COLO 205, in the experiment on HOP-92, with SF-268, in the experiment on UACC-257, with NCI-H460 and in the experiment with NCI-H226 was > 100 µM (inactive) in each case. The GI50 is > 100 µM (inactive) with OVCAR-4; > 100 µM (inactive) in the experiment on SK-MEL-28; > 100 µM (inactive) in the experiment with OVCAR-5; 63.8 µM (inactive) in the experiment on LOX IMVI; 91.6 µM (inactive) in the experiment on MDA-MB-231; 27.5 µM (inactive) with T47D. In addition, the GI50 is 75.2 µM (inactive) in the experiment with OVCAR-3, > 100 µM in the experiment with HCT-15, 57.7 µM (inactive) in the experiment on A498 and 47.1 µM (inactive) with DU-145.

For `CC1=NN(c2nc(N)nc(C(C)Sc3cc(Cl)c(C)cc3S(N)(=O)=O)n2)C(C)(C)C1` (centres undefined), the GI50 in the experiment with COLO 205, with HOP-92, with SF-268, with UACC-257, with CCRF-CEM and in the experiment on NCI-H460 was > 10 µM (inactive) each time. Moreover, the GI50 with NCI-H226, in the experiment on OVCAR-4, in the experiment on SK-MEL-28, in the experiment with OVCAR-5, with SR and in the experiment with PC-3 was > 10 µM (inactive) in each case. The GI50 in the experiment with LOX IMVI is > 10 µM (inactive); with T47D, > 10 µM (inactive); in the experiment with OVCAR-3, > 10 µM (inactive); in the experiment on HCT-15, > 10 µM; in the experiment on A498 it was > 10 µM (inactive); in the experiment with Malme-3M, > 10 µM (inactive). In addition, the GI50 with DU-145 was > 10 µM (inactive).

As for `CCOc1ncn(-c2ccc(NC(=S)Nc3cnccn3)cc2)n1`, the GI50 in the experiment with HOP-92, in the experiment with SF-268, in the experiment on UACC-257, with CCRF-CEM, in the experiment on NCI-H460 and with NCI-H226 was > 10 µM (inactive) in each case. The GI50 in the experiment with OVCAR-4, in the experiment with OVCAR-5, with SR, in the experiment on MDA-MB-231, with T47D and in the experiment on OVCAR-3 was > 10 µM (inactive) in each case. Besides, the results for the GI50 in the experiment on HCT-15, in the experiment on Malme-3M and with DU-145 were > 10 µM, > 10 µM (inactive) and > 10 µM (inactive), respectively.

For the compound `COC1C(O)CC(OC2CC(OC3CC(O[C@@H]4C(=O)c5c(cc6cc(OC7CC(OC8CC(O)C(O)C(C)O8)C(O)C(C)O7)c(C)c(O)c6c5O)C[C@H]4[C@H](OC)C(=O)[C@@H](O)[C@@H](C)O)OC(C)C3O)OC(C)C2O)OC1C` (some centres undefined), the GI50 in the experiment with COLO 205 was 0.0189 µM (active); in the experiment on HOP-92, < 0.014 µM (active); in the experiment on SF-268, 0.0141 µM (active); in the experiment on UACC-257 it was < 0.0166 µM (active); in the experiment with NCI-H460, < 0.01 µM (active); in the experiment on NCI-H226, < 0.104 µM (active). The GI50 is 0.0671 µM (active) in the experiment with OVCAR-4; < 0.0126 µM (active) in the experiment with SK-MEL-28; < 0.0175 µM (active) with OVCAR-5; < 0.01 µM (active) in the experiment with SR; 0.0574 µM (active) in the experiment on MDA-MB-231; < 0.01 µM (active) with T47D. The GI50 is < 0.0271 µM (active) with OVCAR-3, 0.673 µM in the experiment on HCT-15, < 0.0126 µM (active) with Malme-3M and < 0.01 µM (active) with DU-145.

Turning to `Cc1ccc(OCC2OC(n3cnc4nc(Nc5ccc(Cl)c(Cl)c5)nc(Cl)c43)CC2Oc2ccc(C)cc2)cc1` (centres undefined), the GI50 in the experiment on COLO 205 was > 100 µM (inactive); with SF-268, > 100 µM (inactive); in the experiment with UACC-257, > 100 µM (inactive); with CCRF-CEM, > 100 µM (inactive); in the experiment on NCI-H460 it was 27.2 µM (inactive); in the experiment on NCI-H226, 46.9 µM (inactive). Further, the GI50 in the experiment with OVCAR-4, in the experiment with SK-MEL-28, in the experiment on OVCAR-5, with PC-3, in the experiment on MDA-MB-231 and in the experiment with T47D was > 100 µM (inactive) throughout. Moreover, the GI50 is > 100 µM (inactive) with OVCAR-3, > 100 µM with HCT-15, > 100 µM (inactive) in the experiment on Malme-3M and > 100 µM (inactive) with DU-145.

Take `Cc1ccc(S(=O)(=O)Nc2nnc(S(N)(=O)=O)s2)cc1`: the GI50 in the experiment on COLO 205, in the experiment on HOP-92, in the experiment with SF-268, in the experiment with UACC-257, in the experiment on NCI-H460 and in the experiment on NCI-H226 was > 100 µM (inactive) each time. The GI50 with OVCAR-4, in the experiment with SK-MEL-28, in the experiment with OVCAR-5, in the experiment with SR, in the experiment with LOX IMVI and in the experiment with MDA-MB-231 was > 100 µM (inactive) throughout. For the same compound, the GI50 in the experiment on T47D is > 100 µM (inactive); in the experiment with OVCAR-3, > 100 µM (inactive); in the experiment with HCT-15 it was > 100 µM; in the experiment on A498 it was > 100 µM (inactive); with Malme-3M, > 100 µM (inactive); with DU-145, > 100 µM (inactive).

Consider `CC(C)c1ccc(C(O)(C(=O)O)c2ccc(C(C)C)cc2)cc1`, for which the GI50 is > 100 µM (inactive) with COLO 205; 31.8 µM (inactive) in the experiment on HOP-92; 33.7 µM (inactive) in the experiment with SF-268; > 100 µM (inactive) with UACC-257; 49.4 µM (inactive) with CCRF-CEM; 47.2 µM (inactive) in the experiment with NCI-H460. Further, the GI50 in the experiment with NCI-H226 is 24.5 µM (inactive); with OVCAR-4, 42.6 µM (inactive); in the experiment with SK-MEL-28, 64.9 µM (inactive); with OVCAR-5, > 100 µM (inactive); in the experiment with SR, 60.8 µM (inactive); in the experiment with PC-3 it was 31.6 µM (inactive). Further, the GI50 in the experiment with LOX IMVI is 68.5 µM (inactive); in the experiment on T47D it was 43.2 µM (inactive); with OVCAR-3, 26.1 µM (inactive); in the experiment with HCT-15, 46.6 µM; in the experiment on A498, 57.9 µM (inactive); in the experiment on Malme-3M, 78.7 µM (inactive). Besides, the GI50 in the experiment with DU-145 is 61.2 µM (inactive).

Regarding `CCOC(=O)C(C(=O)OCC)=C1NC2(c3ccccc3Nc3ccc(C)cc32)C(C(=O)OC)S1` (centres undefined), the GI50 with COLO 205 was 11.6 µM (inactive); in the experiment on HOP-92, 4.92 µM (inactive); with SF-268, 12.3 µM (inactive); in the experiment on UACC-257, 26.4 µM (inactive); with CCRF-CEM, 15.1 µM (inactive); in the experiment on NCI-H460 it was 12.1 µM (inactive). The GI50 with NCI-H226 is 29.9 µM (inactive); in the experiment on OVCAR-4 it was 21.9 µM (inactive); in the experiment on SK-MEL-28, > 100 µM (inactive); with OVCAR-5, 20.9 µM (inactive); with SR it was 6.34 µM (inactive); in the experiment with PC-3 it was 6.85 µM (inactive). The GI50 in the experiment with LOX IMVI is 33.5 µM (inactive); in the experiment on T47D, 3.96 µM (inactive); in the experiment on OVCAR-3, 23.1 µM (inactive); in the experiment on HCT-15, 18.7 µM; with A498 it was 10.1 µM (inactive); in the experiment with Malme-3M it was 22.5 µM (inactive). Also, in the experiment with DU-145, the GI50 was 50.6 µM (inactive).

The values above are taken from ChEMBL document CHEMBL1201862, “PubChem BioAssay data set” (2004).
